Two molecules from ChEMBL document CHEMBL1287665, “Design, synthesis and inhibitory effect of pentapeptidyl chloromethyl ketones on proteinase K” (Bioorg Med Chem, 2010) can be followed below.

Active and inactive are the calls of the source.

Conditions in all cases: Parengyodontium album
The target in assay [1] is Proteinase K (Engyodontium album) (UniProt P06873). Nature of the assay: Inhibition of Engyodontium album proteinase K proteolytic activity assessed as digestion of bovine serum albumin at 0.75 mM after 10 mins using coomassie blue staining by protein gel analysis.
Sequence of Proteinase K (Engyodontium album) (P06873 whole entry): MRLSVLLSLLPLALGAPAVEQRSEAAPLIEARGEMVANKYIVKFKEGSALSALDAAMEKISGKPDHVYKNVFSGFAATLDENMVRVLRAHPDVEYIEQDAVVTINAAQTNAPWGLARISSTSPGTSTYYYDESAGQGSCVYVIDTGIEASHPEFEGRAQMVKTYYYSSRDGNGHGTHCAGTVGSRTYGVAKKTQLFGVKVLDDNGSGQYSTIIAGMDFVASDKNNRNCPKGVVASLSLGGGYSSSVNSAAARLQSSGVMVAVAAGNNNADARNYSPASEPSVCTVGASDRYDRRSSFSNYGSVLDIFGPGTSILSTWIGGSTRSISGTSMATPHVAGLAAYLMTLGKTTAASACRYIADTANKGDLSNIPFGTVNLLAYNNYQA
The target is the same in assay [2]. Nature of the assay: Inhibition of Engyodontium album proteinase K proteolytic activity in human HeLa cell lysate using beta-actin primer/probes of TaqMan gene expression Cells-to-CT kit at 0.5 mM after 60 mins by qRT-PCR analysis. Type of assay: cell-free. For orientation: Real-time PCR tracks product formation cycle by cycle.
Assay [3] shares this target. Nature of the assay: Inhibition of Engyodontium album proteinase K proteolytic activity in human HeLa cell lysate using beta-actin primer/probes of TaqMan gene expression Cells-to-CT kit at 0.10 mM after 60 mins by qRT-PCR analysis. Type of assay: cell-free.
The target is the same in assay [4]. Nature of the assay: Inhibition of Engyodontium album proteinase K proteolytic activity assessed as concentration required to obtain cycle threshold 26 using TaqMan gene expression Cells-to-CT kit after 60 mins by qRT-PCR analysis.
Assay [5] has the same target. Nature of the assay: Ratio of compound to MeO-Suc-AAAPV-CH2Cl for inhibition of Engyodontium album proteinase K proteolytic activity assessed as concentration required to obtain cycle threshold 26 using TaqMan gene expression Cells-to-CT kit after 60 mins by RT-PCR analysis.
Assay [6] shares this target. Nature of the assay: Inhibition of Engyodontium album proteinase K proteolytic activity assessed as digestion of bovine serum albumin at 0.25 mM after 10 mins using coomassie blue staining by protein gel analysis.

Consider `COC(=O)CCC(=O)N[C@@H](C)C(=O)N[C@H](C)C(=O)N[C@@H](C)C(=O)N1CCC[C@H]1C(=O)N[C@@H](C(=O)CCl)C(C)C`, for which the inhibition entry in assay [1] is “inactive”. In addition, the inhibition entry in assay [2] was “Active”.

Take `COC(=O)CCC(=O)N[C@@H](C)C(=O)N[C@H](C)C(=O)N[C@@H](C)C(=O)N1CCC[C@H]1C(=O)N[C@H](Cc1ccccc1)C(=O)CCl`: the inhibition result in assay [3] and in assay [6] was “Active” each time. Also, in assay [4], the Activity worked out at 0.1 mM. For the same molecule, the Ratio in assay [5] is 7.5.
